According to patent US9254283B2, “Therapeutic agent for migraine” (priority 2008, dated 2016):

System: cerebral vascular smooth muscle (basilar arteries)
Assay: Cerebral vasoconstriction effect: inhibition of adenosine-induced relaxation of isolated basilar artery rings
Details: dog basilar artery rings
Protocol: Dogs were anesthetized by intravenous administration of sodium pentobarbital, exsanguinated by decapitation and subjected to craniotomy. The basilar arteries were removed, and ring specimens of cerebral vascular smooth muscle measuring about 2 mm in width were prepared. Each ring specimen was fixed to an injection needle (cut into a 2-mm piece) with a silk thread. The injection needle was fixed to a holder installed in an Easy Magnus Device (Model: UC-2; Kishimoto Medical Instruments), and the specimen was allowed to stabilize for 60 minutes or more under a resting tension of 0.2 g (1.96 mN) in a 37° C. nutritive solution. […] Separately, in the same manner as in the test compound-administered group, dimethylsulfoxide alone was cumulatively added in place of the test compound (solvent-added group). The contraction of the cerebral vascular smooth muscle was then recorded on a recorder (Yokogawa Electric Corporation) from a transducer (Nihon Kohden Corporation) connected to the holder, to which the specimen was fixed, via a strain pressure amplifier (Nihon Kohden Corporation) (n=6). […] The cerebral vasoconstriction effect was determined as the percentage inhibition (%) of the adenosine-induced cerebral vascular smooth muscle relaxation, and comparison was made between the test compound-added group and the solvent-added group.

SMILES | inhibition at 0.01 µM (Canis lupus familiaris, 10 nmol/L, n=6, solvent-added group 0.6±7.6%, read-out: percentage inhibition of the adenosine-induced cerebral vascular smooth muscle relaxation) [%] | suppressing effect on adenosine-induced cerebral vascular smooth muscle relaxation (in words) (versus solvent-added group)
Cc1ccc(C(=O)Nc2nc(-c3ccco3)c(C(=O)C3CCOCC3)s2)cn1 [(IIC)] | 97.4 ± 1.8 | –
CC(C)(O)CCN1CCN(c2cc3nc(-c4ccco4)nn3c(N)n2)CC1 [Compound (IB)] | – | confirmed
